Columns and labels:
[1] = system: new onset T1DM NOD mice; assay: Restoration of euglycemia in new onset diabetic NOD mice; assay type: in vivo, mouse; conditions: NOD-sp hosts; treatment 28 days
Description: We tested the efficacy of a 14- or 28-day course of Power Mix (RPM+IL-2/Fc+mIL-15/Fc) in new onset (>10 days) T1DM NOD mice whose repeated blood glucose levels ranged from 300 to 450 mg/dl. All non-treated diabetic NOD mice remained hyperglycemic without spontaneous remissions (Table 1, group A) and most died within 7 weeks despite insulin treatment (data not shown). In contrast, euglycemia was achieved within 5-7 weeks and maintained throughout a follow up period of over 300 days in 55 of 60 diabetic NOD mice treated with the RPM+IL-2/Fc+mIL-15/Fc regimen (Table 1 groups B and C). By comparison, remissions were less frequent (Table 1, Groups D-F) and delayed if elements of the treatment mix were eliminated.
To determine whether the presence of the T cell regulatory-enriched CD25+ T cell population is crucial to the beneficial therapeutic effects of Power Mix, prior to administration, we treated new onset diabetic NOD mice with an anti-CD25 mAb regimen known to delete CD4+CD25+ T cells (Zheng et al., Adv. Exp. Med. Biol., 520:87-95, 2003; Sanchez-Fueyo et al., Nat. Immunol., 4:1093-1101, 2003). Seven days after the initiation of anti-CD25 mAb treatment, these CD25+ T cell depleted mice received regimen treatment for 28 days (Table 1, Group G). […]
Blood glucose levels of NOD mice were monitored twice weekly with the Accu-Check blood glucose monitor system (Roche, Indianapolis, Ind.). […]

[2] = subcutaneous injection of 25 mg twice a week; cited from earlier work

Molecule	Restored to Normoglycemia (#/total treated) [1]	Time to peak blood levels (average) [2]
CO[C@H]1C[C@@H]2CC[C@@H](C)[C@@](O)(O2)C(=O)C(=O)N2CCCC[C@H]2C(=O)O[C@H]([C@H](C)C[C@@H]2CC[C@@H](O)[C@H](OC)C2)CC(=O)[C@H](C)/C=C(\C)[C@@H](O)[C@@H](OC)C(=O)[C@H](C)C[C@H](C)/C=C/C=C/C=C/1C [RPM, rapamycin]	5/19	–
Etanercept	–	72 h
